The source of these data is publication PMC5433008 (BMC Neuroscience, 2017).

The test has as its system NMDA-evoked currents in cultured rat embryonic hippocampal neurons (NMDAr). As to conditions: 500 µM.

As to TKRSSRAFRE [EAR7], the “inhibitory action on NMDA-evoked currents (control peptide)” value is “No inhibitory action”.
